A short description of series [1]: in vitro. The settings on record: human, Caco-2.
The nature of series [2]: MTT viability assay on SMI microtissues after drug exposure. The settings on record: human, SMI (small intestinal) microtissues. (Tetrazolium dyes change colour on reduction, which living cells bring about.)
The next series has as its target P-gp (Homo sapiens, UniProt P08183). The series can be described thus: in vitro.
A short description of series [3]: Drug permeability across SMI microtissues. The conditions noted are these: human, A-B Papp, Table VIII, 10 μM, 2 h, n = 3.
Series [4] concerns SMI microtissues. The series is described as follows: Drug permeability across SMI microtissues. The settings on record: for Efflux: Table VIII, 10 μM, 2 h.
The target in the next series is BCRP (Homo sapiens, UniProt Q9UNQ0). The series can be described thus: in vitro.
Sequence of BCRP (Q9UNQ0 whole entry): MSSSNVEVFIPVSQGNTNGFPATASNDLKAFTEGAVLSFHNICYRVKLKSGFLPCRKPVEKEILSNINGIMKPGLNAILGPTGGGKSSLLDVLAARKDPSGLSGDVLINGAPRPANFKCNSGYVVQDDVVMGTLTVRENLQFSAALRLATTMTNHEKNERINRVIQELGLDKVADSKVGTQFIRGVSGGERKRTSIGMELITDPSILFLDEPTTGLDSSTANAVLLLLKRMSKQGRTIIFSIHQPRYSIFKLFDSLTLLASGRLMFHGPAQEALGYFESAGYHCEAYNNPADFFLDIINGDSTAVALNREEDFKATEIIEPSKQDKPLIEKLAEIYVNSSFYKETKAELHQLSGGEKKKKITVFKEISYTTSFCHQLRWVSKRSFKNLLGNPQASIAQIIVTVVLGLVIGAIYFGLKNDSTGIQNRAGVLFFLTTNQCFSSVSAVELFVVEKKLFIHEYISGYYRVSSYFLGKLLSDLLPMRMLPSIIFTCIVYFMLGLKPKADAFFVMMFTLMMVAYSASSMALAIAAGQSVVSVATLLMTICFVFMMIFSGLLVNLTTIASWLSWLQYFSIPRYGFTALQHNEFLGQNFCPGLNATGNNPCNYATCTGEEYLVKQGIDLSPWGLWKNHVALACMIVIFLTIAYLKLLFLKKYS
The next series deals with Caco-2 cell monolayers. The conditions noted are these: Table VI; 10 μM, 2 h.
The conditions of series [5]: cited from earlier work.
Series [6] relates to SMI microtissues.
A short description of series [7]: in vitro. The settings on record: human.

For orientation: Papp means the rate of passage across a membrane or cell layer, normalised by area and donor concentration. Low values mean poor permeation, high ones ready permeation. A word on the viability: it is a read-out of living cells in per cent, often relative to untreated cells. As usually defined, the Papp B→A is how fast a substance crosses the layer from the basolateral side. Broadly, the efflux ratio is a quotient of directional permeabilities that is used to spot active efflux. In general, Papp A→B refers to how fast a substance crosses the layer from the apical side. Read a low Papp A→B as poor permeation.

Like-named read-outs stand apart in the source and are kept apart here.

Sequence of P-gp (P08183 whole entry): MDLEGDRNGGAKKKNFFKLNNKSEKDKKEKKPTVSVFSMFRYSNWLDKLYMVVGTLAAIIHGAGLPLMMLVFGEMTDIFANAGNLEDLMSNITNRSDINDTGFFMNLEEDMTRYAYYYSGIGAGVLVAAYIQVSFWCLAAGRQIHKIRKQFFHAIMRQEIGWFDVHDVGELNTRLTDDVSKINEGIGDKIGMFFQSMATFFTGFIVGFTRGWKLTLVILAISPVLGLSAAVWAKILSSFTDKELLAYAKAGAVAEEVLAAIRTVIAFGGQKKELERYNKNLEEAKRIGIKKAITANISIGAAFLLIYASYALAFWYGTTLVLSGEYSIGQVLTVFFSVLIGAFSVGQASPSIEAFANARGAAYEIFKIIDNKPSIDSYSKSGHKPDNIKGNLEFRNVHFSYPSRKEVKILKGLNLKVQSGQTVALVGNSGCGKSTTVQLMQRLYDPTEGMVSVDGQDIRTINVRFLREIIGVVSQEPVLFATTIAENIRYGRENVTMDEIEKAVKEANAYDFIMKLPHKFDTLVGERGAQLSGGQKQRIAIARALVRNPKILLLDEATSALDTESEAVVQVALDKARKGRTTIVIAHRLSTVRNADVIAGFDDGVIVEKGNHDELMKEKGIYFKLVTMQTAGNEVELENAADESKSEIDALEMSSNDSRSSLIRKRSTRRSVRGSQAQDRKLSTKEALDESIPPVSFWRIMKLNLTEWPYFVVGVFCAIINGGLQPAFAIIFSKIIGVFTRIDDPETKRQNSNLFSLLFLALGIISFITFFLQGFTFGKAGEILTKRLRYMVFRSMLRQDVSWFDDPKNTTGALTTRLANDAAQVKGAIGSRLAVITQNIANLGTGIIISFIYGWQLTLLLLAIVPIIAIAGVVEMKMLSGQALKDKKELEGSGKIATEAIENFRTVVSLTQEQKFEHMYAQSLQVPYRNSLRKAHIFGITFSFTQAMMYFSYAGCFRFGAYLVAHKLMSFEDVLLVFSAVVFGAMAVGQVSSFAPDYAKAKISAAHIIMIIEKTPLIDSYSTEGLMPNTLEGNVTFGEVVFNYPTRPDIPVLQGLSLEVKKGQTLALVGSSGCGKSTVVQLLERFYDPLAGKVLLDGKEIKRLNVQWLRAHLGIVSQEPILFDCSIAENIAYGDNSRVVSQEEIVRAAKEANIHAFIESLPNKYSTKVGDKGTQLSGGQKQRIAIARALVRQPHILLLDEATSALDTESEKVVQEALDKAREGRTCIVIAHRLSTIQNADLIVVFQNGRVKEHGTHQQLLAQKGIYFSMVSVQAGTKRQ

For the compound `CCCC(=O)Nc1ccc(OCC(O)CNC(C)C)c(C(C)=O)c1` (centres unmarked) [Acebutolol], the Papp at 2 h, 10 μM in the series “in vitro [1]” worked out at 0.4 ×10⁻⁶ cm/s. In series [2], the viability at 96 h, 1 µM stood at 98.5% and the viability at 96 h, 10 µM was found to be 97.5%.
Compound `Nc1nc2c(ncn2COCCO)c(=O)[nH]1` [Acyclovir] yielded a Papp at 2 h, 10 μM in the series “in vitro [1]” of 0.9 ×10⁻⁶ cm/s. For the same compound, in series [2], the viability at 96 h, 1 µM was determined as 104%; the viability at 96 h, 10 µM came to 97.6%; the viability at 96 h, 100 µM came to 91.1%.
On the same counts, the results for `CN/C(=N/CCSCc1nc[nH]c1C)NC#N` [Cimetidine] are 2.7 ×10⁻⁶ cm/s, 109%, 103% and 96.1%.
Regarding `C[C@H]1O[C@@H](O[C@H]2[C@@H](O)C[C@H](O[C@H]3[C@@H](O)C[C@H](O[C@H]4CC[C@@]5(C)[C@H](CC[C@@H]6[C@@H]5C[C@@H](O)[C@]5(C)[C@@H](C7=CC(=O)OC7)CC[C@]65O)C4)O[C@@H]3C)O[C@@H]2C)C[C@H](O)[C@@H]1O` [Digoxin], at P-gp, the Papp B→A at 2 h, 10 μM came out at 29 ± 5 ×10⁻⁶ cm/s; the Papp at 2 h, 10 μM was found to be 12.6 ± 0.74 ×10⁻⁶ cm/s; the efflux ratio at 2 h, 10 μM is 2.3. In addition, on P-gp (with Verapamil 100 uM), the Papp at 2 h, 10 μM was found to be 16 ± 1.75 ×10⁻⁶ cm/s and the efflux ratio at 2 h, 10 μM came to 1.4.
Take `CCOC(=O)[C@H](CCc1ccccc1)N[C@@H](C)C(=O)N1CCC[C@H]1C(=O)O` [Enalapril]: the apparent permeability (Papp) at 2 h, 10 μM in “in vitro [1]” worked out at 0.2 ×10⁻⁶ cm/s. In series [2], the viability at 96 h, 1 µM was 109%; the viability at 96 h, 10 µM amounted to 105%; the viability at 96 h, 100 µM was found to be 99%.
The compound `CC[C@H]1OC(=O)[C@H](C)[C@@H](O[C@H]2C[C@@](C)(OC)[C@@H](O)[C@H](C)O2)[C@H](C)[C@@H](O[C@@H]2O[C@H](C)C[C@H](N(C)C)[C@H]2O)[C@](C)(O)C[C@@H](C)C(=O)[C@H](C)[C@@H](O)[C@]1(C)O` [Erythromycin] displayed a Papp at 2 h, 10 μM in “in vitro [1]” of 0.2 ×10⁻⁶ cm/s.
As to `O=C1NC(c2ccccc2)(c2ccccc2)C(=O)N1COP(=O)(O)O` [Fosphenytoin], the Papp A→B at 2 h, 10 μM turned out to be 12.3 ×10⁻⁶ cm/s in series [3] (Transport A-B) and 3.77 ×10⁻⁶ cm/s in series [3] (line Transport B-A). The Efflux in the series with SMI microtissues [4] is 0.31.
Take `CN(C)C(=O)C(CCN1CCC(O)(c2ccc(Cl)cc2)CC1)(c1ccccc1)c1ccccc1` [Loperamide]: at P-gp (Efflux ratio, with inhibitor Verapamil 100 uM, substrate 10 μM, 2 hr), the efflux ratio at 2 h, 10 μM was 6.5. The compound also registered an apparent permeability (Papp) at 2 h, 10 μM at P-gp (Mean A- > B Papp, No Inhibitor, substrate 10 μM, 2 hr, n = 3) of 0.9 ×10⁻⁶ cm/s. Further, the Papp B→A at 2 h, 10 μM on P-gp (Mean B- > A Papp, No Inhibitor, substrate 10 μM, 2 hr, n = 3) amounted to 15.5 ± 4.6 ×10⁻⁶ cm/s.
Regarding `Cc1ncc2n1-c1ccc(Cl)cc1C(c1ccccc1F)=NC2` [Midazolam], the Papp A→B at 2 h, 10 μM turned out to be 14.4 ×10⁻⁶ cm/s in [3] (Transport A-B) and 13.7 ×10⁻⁶ cm/s in series [3] (line Transport B-A). Besides, the Efflux in the series with SMI microtissues [4] is 0.95.
Regarding `O=C1CN(/N=C/c2ccc([N+](=O)[O-])o2)C(=O)N1` [Nitrofurantoin], at BCRP, the Papp B→A at 2 h, 10 μM worked out at 28.4 ± 3.3 ×10⁻⁶ cm/s and the apparent permeability (Papp) at 2 h, 10 μM came out at 2.7 ± 1.6 ×10⁻⁶ cm/s. At BCRP (with Novobiocin 50 uM), this compound displayed an apparent permeability from basolateral to apical (Papp B→A) at 2 h, 10 μM of 18.9 ± 1 ×10⁻⁶ cm/s and an apparent permeability (Papp) at 2 h, 10 μM of 4.7 ± 0.65 ×10⁻⁶ cm/s.
For `CC(C)NCC(O)COc1cccc2ccccc12` (centres unmarked) [Propranolol], the “Caco-2 mean A- > B Papp” value with Caco-2 cell monolayers is reported as 12.9 10^−6 cm s^−1.
With `C=C[C@H]1C[N@@]2CC[C@H]1C[C@@H]2[C@@H](O)c1ccnc2ccc(OC)cc12` [Quinidine], in series [2], the viability at 96 h, 1 µM amounted to 99.4%; the viability at 96 h, 10 µM is 100%; the viability at 96 h, 100 µM was determined as 99.3%. Also, the “Fraction absorbed (%) in humans” value in series [5] (in vivo) is 80%.
In the series “in vitro [1]”, `CNC(=C[N+](=O)[O-])NCCSCc1ccc(CN(C)C)o1` [Ranitidine] returned a Papp A→B at 2 h, 10 μM of 0.2 ×10⁻⁶ cm/s and a Papp at 2 h, 10 μM of 0.1 ×10⁻⁶ cm/s. Also, in series [2], the viability at 96 h, 1 µM turned out to be 102%; the viability at 96 h, 10 µM amounted to 98.1%; the viability at 96 h, 100 µM is 96%. Besides, the “Papp A- > B SMI microtissues” value in the series with SMI microtissues [4] (Table V, mean of n = 2 SMI microtissue lots) is given as 2.2 ± 0.5 10^−6 cm^s−1. Also, the “Fraction absorbed in humans (class)” value in series [5] (Table IX, class in brackets, no reference given) is listed as “Moderate”.
As to `CC(C)c1nc(N(C)S(C)(=O)=O)nc(-c2ccc(F)cc2)c1/C=C/[C@@H](O)C[C@@H](O)CC(=O)O` [Rosuvastatin], on P-gp, the Papp B→A at 2 h, 10 μM is 9.4 ± 1 ×10⁻⁶ cm/s and the Papp at 2 h, 10 μM was found to be 0.5 ± 0.07 ×10⁻⁶ cm/s. For the same compound, the Papp B→A at 2 h, 10 μM at P-gp (with Elacider 100 uM) was 5.3 ± 0.3 ×10⁻⁶ cm/s.
Compound `CC(=O)CC(c1ccccc1)c1c(O)c2ccccc2oc1=O` (centres unmarked) [Warfarin] had a Papp A→B at 2 h, 10 μM in the series “in vitro [1]” of 27.8 ± 7.6 ×10⁻⁶ cm/s. Also, the Papp at 2 h, 10 μM in “in vitro [1]” is 28.6 ×10⁻⁶ cm/s; in the series “in vitro [7]” (Lot #1 Mean A- > B Papp) it was 48.5 ± 8.18 ×10⁻⁶ cm/s; in “in vitro [7]” (Lot #2 Mean A- > B Papp), 24.3 ± 0.86 ×10⁻⁶ cm/s; in the series “in vitro [7]” (Lot #3 Mean A- > B Papp) it was 19.9 ± 3.45 ×10⁻⁶ cm/s; in the series “in vitro [7]” (SMI mean A- > B Papp), 36.7 ± 16.8 ×10⁻⁶ cm/s. In addition, in the series on SMI microtissues [6], the “Papp A- > B SMI microtissues” value is recorded as 22.3 ± 0.5 10^−6 cm^s−1.

Values taken from PMC6599640 (Pharmaceutical research, 2018).
